Key:
Acinetobacter baumannii = assay: Antimicrobial activity against Acinetobacter baumannii; format: functional
Klebsiella pneumoniae = assay: Antimicrobial activity against Klebsiella pneumoniae; format: functional, organism-based
[1] = tested on: Stenotrophomonas maltophilia; assay: Antimicrobial activity against Stenotrophomonas maltophilia; format: functional, organism-based

Measured: MIC

COLISTIN
< 0.5 µg/mL: Acinetobacter baumannii | Klebsiella pneumoniae | [1]

— ChEMBL document CHEMBL1671711, “Serum and cerebrospinal fluid levels of colistin in pediatric patients” (Antimicrob Agents Chemother, 2010)
